# Key:
# in vivo = assay: in vivo; parameters: species or system mice; conditions: mouse
# Experimental: The brain penetrance of galangin and progalangin were assessed in a standard PK comprising subcutaneous (Sub-Q) injection of 5 adult non-transgenic mice with 50 ul of a 5 mg/ml stock of compound in dimethylsulfoxide (DMSO) or a dose of 10 mg/kg for a 25 g mouse. Injected mice were anesthetized with ketamine/xylazine at 1, 2, 4, 6, and 8 hours and blood collected by cardiac puncture. The mice were then perfused with saline and brain tissue dissected and snap frozen on dry ice. Blood was centrifuged at 3000 rpm for 10 minutes and the plasma supernatant collected. Both plasma and the right hemibrain were sent to Integrated Analytical Solutions (IAS, Berkeley, Calif.) with a reference sample of compound for compound level analysis in tissue and plasma. The compound levels were determined using a LC-MS/MS approach.
# CNS exposure studies were performed and consisted of a time-course design to collect heparinized plasma and brains. Following sc administration of the galangin or progalangin (compound-2) at 10 mg/kg, plasma and brain levels of the compounds were determined by quantitative LC/MS/MS methodology. Plasma samples were precipitated with acetonitrile:methanol (1:1) cocktail containing an internal standard. The brain samples were homogenized directly in ethylacetate or extracted from 5M guanidine homogenates with the liquid-liquid method. The resulting supernatant was evaporated to dryness and subjected to the LC/MS/MS analysis. For each compound 5 mice were used for the analysis. The brain-to-plasma ratios and plasma/brain Cmax levels were then determined (see, e.g., FIG. 8).
# [1] = tested on: sAPPβ production by SH-SY5Y cells; assay: sAPPβ AlphaLisa in SH-SY5Y neuroblastoma cells; assay type: cell-based
# Experimental: APP is processed through two major pathways: the non-amyloidogenic pathway involves α-secretase cleavage, proteolyzing APP into sAPPα and α-CTF (C83), while the amyloidogenic pathway starts with β-secretase cleavage, cleaving APP into sAPPβ and β-CTF (C99). The β-CTF is then cleaved by the γ-secretase, which produces Aβ and AICD. The ability of the ASBIs to inhibit the β-secretase processing of APP was tested in SH-SY5Y neuroblastoma cells that express APP. The sAPPβ fragment formed from the BACE cleavage product was measured using an AlphaLisa assay from Perkin-Elmer (Cat# A2132). […] Testing of a panel of bioflavonoids led to the identification of galangin as an ASBI.
# [2] = molecular target: T1, BACE cleavage of the MBP-C125 APP substrate (Homo sapiens, UniProt P05067); assay: ASBI assay a): BACE cleavage of MBP-C125 substrate (C99 by AlphaLISA); assay type: biochemical
# T1 construct: purchased Sigma (methods); R&D (HTS description) B9059; 931-AS-050
# Experimental: As illustrated in the Examples, in one embodiment, an MBP-C125 APP695 wt fusion protein can be used as one of the substrates. The second substrate can be the commercially available P5-P5′ fluorescence substrate. Each of these substrates is incubated with recombinant BACE (R&D (cat#931-AS-050) in, for example, a 96 well plate format. For the MBP-C125 substrate the C-99 product from the BACE cleavage can be measured using an AlphaLisa assay as a readout. For the P5-5′ substrate the […] upon BACE cleavage can be used as the readout. An ASBI would inhibit the BACE cleavage of the MBP-C125 substrate while not being inhibitory of the fluorescence substrate.
# A protein construct of Maltose-Binding-Protein carrying the 125 C-terminal residues of APP (1 uL of 1 mM in water) was incubated with a flavonoid (100 uM) for 15 minutes. The mix was then submitted to cleavage by BACE (Sigma #B9059, 5 μl of 3 unit/ml in BACE buffer) for 30 minutes. After 0, 10, 20 and 30 minutes, 2 uL the reaction mixture were frozen and the different time points were quantified simultaneously for the amount of APP-C99 created. The quantification was done by using a Perkin Elmer ALPHALisa Amyloid Amyloid Beta kit (AL275C) modified by replacing the anti-Abeta acceptor beads (AL275AC) with anti-APP acceptor beads (AL275AC) and making the antibody mix with 2×ALPHALisa buffer. […]
# T1 sequence (P05067 646-770 limits assumed): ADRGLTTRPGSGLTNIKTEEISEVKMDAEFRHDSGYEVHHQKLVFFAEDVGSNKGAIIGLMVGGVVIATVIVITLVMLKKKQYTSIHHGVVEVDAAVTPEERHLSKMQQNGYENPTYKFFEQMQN
smiles,measurement,setting,value
O=c1c(O)c(-c2ccccc2)oc2cc(O)cc(O)c12 [Galangin],brain penetration,in vivo,did show some brain penetration
same,plasma levels versus brain tissue levels,in vivo,Plasma levels were greater than brain tissue levels
same,brain Cmax of galangin,"in vivo; sc, 10 mg/kg",~50 ng/g
same,brain to plasma ratio,"in vivo; sc, 10 mg/kg",1:10
same,concentration at 1 h,"in vivo; sc, 10 mg/kg",40 ng/g
same,APP levels,[1],No effect on APP levels was detected
same,sAPPβ levels,[1]; 50 μM,decreased sAPPβ levels
same,inhibition of BACE cleavage of the MBP-C125 substrate,"[2]; HTS at 10 uM, flavonoid panel at 100 uM",inhibiting the cleavage of the MBP substrate by BACE
same,dose at which effective as an ASBI,[2]; in the ASBI assays,50 µM

# Reference: patent USRE49873E1, “APP specific bace inhibitors (ASBIs) and uses thereof” (BUCK INSTITUTE FOR RESEARCH ON AGING, priority 2012, dated 2024)
